Experimental data from ChEMBL document CHEMBL5674860, “Optimized Dual-Glo Assay to identify co-culture-induced drug vulnerabilities in 3D CRC models” (2024).

Assays:
Assay type in all cases: functional, Homo sapiens
Set-up in all cases: dose or concentration left out as unconfirmed
Colon cancer organoid [1] = test: Optimized Dual-Glo assay to identify co-culture induced drug vulnerabilities using donated chemical probes and chemogenomics kinase set in O06 CRC organoid and F06 CAF mono and co-culture. […] Cell viability is reported both mono and co-culture models.
Colon cancer organoid [2] = test: Optimized Dual-Glo assay to identify co-culture induced drug vulnerabilities using donated chemical probes and chemogenomics kinase set in O14 CRC organoid and F14 CAF mono and co-culture. […] Cell viability is reported both mono and co-culture models.
Colon cancer organoid [3] = test: Optimized Dual-Glo assay to identify co-culture induced drug vulnerabilities using donated chemical probes and chemogenomics kinase set in O20 CRC organoid and F20 CAF mono and co-culture. […] Cell viability is reported both mono and co-culture models.
[4] = Culture type Co-Culture, Transduced with Lucferase2-P2A-EGFP lentivirus
[5] = Culture type Co-Culture, Transduced with Renilla-dsRed lentivirus
[6] = Culture type Mono-Culture, Transduced with Lucferase2-P2A-EGFP lentivirus
[7] = Culture type Mono-Culture, Transduced with Renilla-dsRed lentivirus

Row | Compound | Cell Viability (Colon cancer organoid [1]; [4]) | Cell Viability (Colon cancer organoid [1]; [5]) | Cell Viability (Colon cancer organoid [1]; [6]) | Cell Viability (Colon cancer organoid [1]; [7]) | Cell Viability (Colon cancer organoid [2]; [4]) | Cell Viability (Colon cancer organoid [2]; [5]) | Cell Viability (Colon cancer organoid [2]; [6]) | Cell Viability (Colon cancer organoid [2]; [7]) | Cell Viability (Colon cancer organoid [3]; [4]) | Cell Viability (Colon cancer organoid [3]; [5]) | Cell Viability (Colon cancer organoid [3]; [6]) | Cell Viability (Colon cancer organoid [3]; [7])
1 | CN(C)C(=O)c1ccc(-c2cc(C(=O)N[C@@H]3CCc4ccccc43)no2)cc1O | 113.879% | 93.2478% | 92.6679% | 134.315% | 73.2649% | 147.75% | 80.1245% | 134.73% | 98.4389% | 104.475% | 121.813% | 120.44%
2 | CC(=O)c1c(NS(C)(=O)=O)c2cc(-c3ccc(Cl)cc3)c(-c3ccc(Cl)cc3Cl)nc2n(C)c1=O [MRL-CB1-NC] | 125.408% | 125.307% | 109.863% | 112.651% | 103.447% | 111.697% | 108.811% | 108.592% | 159.821% | 122.581% | 102.28% | 97.0964%
3 | Cl.Cn1cncc1[C@](O)(COc1ccc(C#N)cc1-c1ccc(OC(F)(F)F)cc1)c1ccc(C#N)cc1 | 31.9269% | 197.169% | 11.7395% | 58.9843% | 26.9606% | 99.4366% | 53.0011% | 61.9663% | 15.3114% | 150.357% | 17.164% | 65.8997%
4 | CO[C@H]1CNC[C@@H](OCC2CCC(F)(F)CC2)[C@@H]1Nc1ncc(-c2cncc(C)c2)c2cc(C)c(=O)[nH]c12 | 95.0954% | 138.476% | 98.6849% | 128.396% | 95.7966% | 88.7201% | 127.619% | 100.555% | 171.391% | 122.949% | 125.457% | 102.001%
5 | Cc1ccccc1Oc1cc(-n2c(=O)cc(C(F)(F)F)[nH]c2=O)c2ccccc2c1Cl [BAY-069] | 128.819% | 153.89% | 114.766% | 111.149% | 114.551% | 130.948% | 135.188% | 102.99% | 83.88% | 119.466% | 87.9837% | 109.318%
6 | CC1=C(C#N)C(c2ccc3c(c2)c(NC(=O)c2ccccc2C)nn3C)C(C#N)=C(C)N1 [BAY-974] | 97.6295% | 94.9804% | 90.396% | 95.4639% | 102.224% | 90.7163% | 99.5288% | 100.218% | 105.235% | 128.576% | 108.1% | 107.642%
7 | CN(C)[C@H]1CCN(c2cc(-c3ccccc3)nc3ccnn23)C1 [(S)-ZINC-3573] | 87.7689% | 121.05% | 76.4871% | 118.538% | 106.455% | 83.2705% | 93.2108% | 87.5469% | 92.3796% | 112.128% | 114.664% | 102.75%
8 | O=C(NCc1ccccc1)c1ccc(S(=O)(=O)NCc2ccccc2)cc1 | 120.089% | 107.944% | 199.391% | 148.571% | 77.1762% | 97.8485% | 125.216% | 99.6349% | 89.1581% | 96.8328% | 97.877% | 137.118%
9 | Clc1cc2c(NC3CCCC3)nnc(-c3ccncc3)c2cc1Cl | 131.765% | 133.642% | 39.455% | 87.2375% | 74.2058% | 99.3707% | 72.2513% | 106.405% | 149.301% | 128.6% | 80.485% | 77.3951%
10 | CCN(Cc1ccc(Cl)cc1)c1ncc(C(=O)NCCCN2CCCC2=O)c(NC2CCCC2)n1 | 130.769% | 112.754% | 126.765% | 120.519% | 82.1387% | 108.641% | 123.72% | 100.116% | 67.2116% | 104.655% | 126.603% | 126.47%
11 | CNCCN1CCC(OCc2ccccc2)CC1 | 118.085% | 144.179% | 105.555% | 98.6528% | 36.6993% | 161.59% | 58.8026% | 109.763% | 15.2188% | 211.667% | 16.3767% | 101.684%
12 | CNC(=O)Nc1ccc(-c2nc(N3CC4CCC(C3)O4)c3cnn(C4CCC5(CC4)OCCO5)c3n2)cc1 | 4.885% | 48.532% | 5.396% | 31.9288% | 9.5061% | 63.2179% | 14.6121% | 40.9027% | 5.834% | 97.6391% | 5.978% | 53.3135%
13 | CN1C(=O)c2sccc2N(C)c2nc(Nc3ccc(S(N)(=O)=O)cc3)ncc21 | 23.972% | 57.2364% | 18.6697% | 40.4928% | 32.5942% | 86.9407% | 37.7546% | 55.4366% | 36.1991% | 84.1947% | 15.0082% | 80.0783%
14 | Cc1ccc(-c2cnc([C@@]3(O)CC[C@H](C(=O)O)C(C)(C)C3)s2)cc1Nc1cccc(C(F)(F)F)n1 [MRL-SYKi-NC] | 103.411% | 158.333% | 78.37% | 87.8946% | 89.1631% | 98.4974% | 85.8631% | 77.2403% | 106.503% | 131.597% | 144.144% | 94.9642%
15 | COCC(=O)NC/C=C/c1ccc2ncnc(Nc3ccc(Oc4ccc(C)nc4)c(C)c3)c2c1 [CP-724714] | 64.178% | 58.1065% | 46.8341% | 91.801% | 60.8642% | 107.55% | 48.0446% | 87.9569% | 97.3561% | 94.0282% | 76.6577% | 85.6537%
16 | CN(C)C/C=C/C(=O)Nc1cc2c(Nc3ccc(F)c(Cl)c3)ncnc2cc1O[C@H]1CCOC1.O=C(O)/C=C\C(=O)O.O=C(O)/C=C\C(=O)O [AFATINIB DIMALEATE] | 26.678% | 56.3894% | 6.9021% | 44.0198% | 29.2387% | 54.1607% | 5.719% | 44.7132% | 37.5755% | 73.123% | 10.3381% | 31.0858%
17 | CN1CCN(c2cnc3c(C4CCN(C(=O)c5ccc(OC(F)(F)F)cc5N)CC4)ncnc3c2)CC1 [BAY-885] | 128.922% | 132.533% | 82.0167% | 90.7895% | 92.1967% | 106.052% | 52.9657% | 104.304% | 78.3205% | 141.163% | 69.7079% | 80.8249%
18 | CNC(=O)c1cc(C(=O)N[C@H]2[C@@H]3COC[C@@H]32)cc2c1O[C@@H](CF)[C@@H]2c1ccccc1 [GSK943] | 83.6271% | 130.888% | 89.2117% | 119.155% | 119.043% | 94.0726% | 104.923% | 119.987% | 106.252% | 108.354% | 98.6986% | 128.773%
